Tests used:
[1] = Antiproliferative activity against mouse B16F10 cells after 24 hrs by MTT assay; type: functional, cell-based; conditions: B16-F10, 24 h
MCF7 = experiment: Antiproliferative activity against human MCF7 cells after 24 hrs by MTT assay; type: functional, cell-based; conditions: MCF7, 24 h
HeLa = experiment: Antiproliferative activity against human HeLa cells after 24 hrs by MTT assay; type: functional, cell-based
[2] = molecular target: Prostaglandin G/H synthase 1 (Homo sapiens, UniProt P23219); experiment: Inhibition of human recombinant COX1 by ELISA
Chain of Prostaglandin G/H synthase 1 (P23219 whole entry): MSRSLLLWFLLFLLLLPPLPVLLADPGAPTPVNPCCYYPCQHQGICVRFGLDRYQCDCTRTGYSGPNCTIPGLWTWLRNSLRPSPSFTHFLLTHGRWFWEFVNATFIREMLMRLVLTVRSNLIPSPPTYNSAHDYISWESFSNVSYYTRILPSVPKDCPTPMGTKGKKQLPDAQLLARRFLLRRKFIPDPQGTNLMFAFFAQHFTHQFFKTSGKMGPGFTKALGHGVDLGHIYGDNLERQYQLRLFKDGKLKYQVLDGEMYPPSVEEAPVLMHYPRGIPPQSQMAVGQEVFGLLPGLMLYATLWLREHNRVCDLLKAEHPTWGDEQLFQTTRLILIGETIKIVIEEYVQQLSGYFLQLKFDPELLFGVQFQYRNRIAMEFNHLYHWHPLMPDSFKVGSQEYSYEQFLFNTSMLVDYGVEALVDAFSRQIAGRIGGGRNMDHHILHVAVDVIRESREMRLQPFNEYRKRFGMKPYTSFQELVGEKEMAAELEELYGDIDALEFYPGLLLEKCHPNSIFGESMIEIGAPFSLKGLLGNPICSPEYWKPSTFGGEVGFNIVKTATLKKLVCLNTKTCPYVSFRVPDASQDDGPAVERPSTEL

[3] = molecular target: T1, Prostaglandin G/H synthase 2 (Homo sapiens, UniProt P35354); experiment: Inhibition of human recombinant COX2 by ELISA
T1 sequence (P35354 whole entry): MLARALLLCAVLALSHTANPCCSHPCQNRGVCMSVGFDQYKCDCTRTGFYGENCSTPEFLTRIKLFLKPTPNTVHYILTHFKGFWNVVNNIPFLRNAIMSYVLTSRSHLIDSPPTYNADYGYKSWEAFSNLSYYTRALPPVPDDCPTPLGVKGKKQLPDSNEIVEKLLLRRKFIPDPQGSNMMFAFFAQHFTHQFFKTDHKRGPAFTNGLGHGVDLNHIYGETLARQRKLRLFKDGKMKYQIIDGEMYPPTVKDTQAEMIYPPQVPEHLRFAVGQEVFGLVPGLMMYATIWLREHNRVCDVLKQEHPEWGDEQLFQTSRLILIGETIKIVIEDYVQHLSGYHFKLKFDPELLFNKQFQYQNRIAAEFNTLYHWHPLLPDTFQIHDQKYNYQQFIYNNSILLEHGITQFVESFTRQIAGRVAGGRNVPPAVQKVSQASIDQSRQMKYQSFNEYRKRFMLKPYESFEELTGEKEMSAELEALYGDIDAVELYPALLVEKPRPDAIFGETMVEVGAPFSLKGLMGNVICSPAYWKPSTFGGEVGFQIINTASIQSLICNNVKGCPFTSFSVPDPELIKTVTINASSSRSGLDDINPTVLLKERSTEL

[4] = Cytotoxicity against human 293T cells after 24 hrs by MTT assay; type: cell-based; conditions: HEK-293T cells

Compound | IC50 [1] | IC50 (MCF7) | IC50 (HeLa) | IC50 [2] | IC50 [3] | CC50 at 24 h [4]
NS(=O)(=O)c1ccc(N2N=C3c4ccccc4CCC3C2c2ccccc2)cc1 (configuration not stated) | 5.01 µM | 5.34 µM | 25.5 µM | > 100 µM | 8.34 µM | 66.9 µM
Cc1ccccc1C1C2CCc3ccccc3C2=NN1c1ccc(S(N)(=O)=O)cc1 (configuration not stated) | 2.93 µM | 8.29 µM | 30.1 µM | 99.9 µM | 3.28 µM | 70.8 µM
Cc1cccc(C2C3CCc4ccccc4C3=NN2c2ccc(S(N)(=O)=O)cc2)c1 (configuration not stated) | 9.06 µM | 29.4 µM | 18 µM | 91.5 µM | 2.48 µM | 67.2 µM
Cc1ccc(C2C3CCc4ccccc4C3=NN2c2ccc(S(N)(=O)=O)cc2)cc1 (configuration not stated) | 17.1 µM | 4.24 µM | 9.86 µM | 88.4 µM | 2.16 µM | 63.6 µM
COc1ccccc1C1C2CCc3ccccc3C2=NN1c1ccc(S(N)(=O)=O)cc1 (configuration not stated) | 11.8 µM | 59.1 µM | 14.4 µM | 96.2 µM | 2.63 µM | 67.2 µM
COc1cccc(C2C3CCc4ccccc4C3=NN2c2ccc(S(N)(=O)=O)cc2)c1 (configuration not stated) | 1.78 µM | 10.4 µM | 19.1 µM | 85.5 µM | 1.12 µM | 68.2 µM
NS(=O)(=O)c1ccc(N2N=C3c4ccccc4CCC3C2c2ccccc2F)cc1 (configuration not stated) | 3.18 µM | 13.2 µM | 37.2 µM | > 100 µM | 11.9 µM | 57.9 µM
NS(=O)(=O)c1ccc(N2N=C3c4ccccc4CCC3C2c2cccc(F)c2)cc1 (configuration not stated) | 11.2 µM | 59.1 µM | 5.06 µM | > 100 µM | 4.83 µM | 57.9 µM
NS(=O)(=O)c1ccc(N2N=C3c4ccccc4CCC3C2c2ccc(F)cc2)cc1 (configuration not stated) | 3.06 µM | 6.89 µM | 22.4 µM | > 100 µM | 15.3 µM | 59.8 µM
NS(=O)(=O)c1ccc(N2N=C3c4ccccc4CCC3C2c2ccccc2Cl)cc1 (configuration not stated) | 20.1 µM | 25.9 µM | 13.7 µM | > 100 µM | 4.92 µM | 65.3 µM
NS(=O)(=O)c1ccc(N2N=C3c4ccccc4CCC3C2c2ccccc2Br)cc1 (configuration not stated) | 3.56 µM | 5.83 µM | 7.21 µM | > 100 µM | 12.7 µM | 61.1 µM
NS(=O)(=O)c1ccc(N2N=C3c4ccccc4CCC3C2c2cccc(Br)c2)cc1 (configuration not stated) | 28 µM | 53.5 µM | 11.7 µM | 100 µM | 3.48 µM | 52.6 µM
NS(=O)(=O)c1ccc(N2N=C3c4ccccc4CCC3C2c2ccc(Br)cc2)cc1 (configuration not stated) | 28.8 µM | 36.5 µM | 6.31 µM | > 100 µM | 26.3 µM | 69.3 µM
NS(=O)(=O)c1ccc(N2N=C3c4ccccc4CCC3C2c2cccc(O)c2)cc1 (configuration not stated) | 33.3 µM | 11 µM | 4.82 µM | 86.2 µM | 1.76 µM | 69.2 µM
NS(=O)(=O)c1ccc(N2N=C3c4ccccc4CCC3C2c2ccc(C(F)(F)F)cc2)cc1 (configuration not stated) | 5.72 µM | 33.9 µM | 11.2 µM | > 100 µM | 18.3 µM | 55.2 µM
NS(=O)(=O)c1ccc(N2N=C3c4ccccc4CCC3C2c2ccc(Cl)cc2Cl)cc1 (configuration not stated) | 53.2 µM | 13.7 µM | 3.57 µM | > 100 µM | 32.3 µM | 64 µM
NS(=O)(=O)c1ccc(N2N=C3c4ccccc4CCC3C2c2c(F)cccc2Cl)cc1 (configuration not stated) | 37.4 µM | 24.4 µM | 5.28 µM | 99.8 µM | 3.66 µM | 68.3 µM
Cc1ccccc1C1C2COc3ccccc3C2=NN1c1ccc(S(N)(=O)=O)cc1 (configuration not stated) | 22.2 µM | 41.2 µM | 36.7 µM | 59.4 µM | 0.46 µM | 64.8 µM
COc1ccccc1C1C2COc3ccccc3C2=NN1c1ccc(S(N)(=O)=O)cc1 (configuration not stated) | 10.2 µM | 42.9 µM | 13.9 µM | 68.5 µM | 0.33 µM | 83.2 µM
COc1ccc(C2C3COc4ccccc4C3=NN2c2ccc(S(N)(=O)=O)cc2)cc1 (configuration not stated) | 15.8 µM | 20.2 µM | 7.29 µM | 78.1 µM | 1.02 µM | 69.5 µM
NS(=O)(=O)c1ccc(N2N=C3c4ccccc4OCC3C2c2ccccc2F)cc1 (configuration not stated) | 35.2 µM | 30.5 µM | 9.87 µM | > 100 µM | 7.24 µM | 70.5 µM
NS(=O)(=O)c1ccc(N2N=C3c4ccccc4OCC3C2c2ccccc2Cl)cc1 (configuration not stated) | 12.1 µM | 23.9 µM | 13.2 µM | 86.8 µM | 2.28 µM | 75 µM
NS(=O)(=O)c1ccc(N2N=C3c4ccccc4OCC3C2c2ccc(Cl)cc2)cc1 (configuration not stated) | 3.76 µM | 28 µM | 7.73 µM | > 100 µM | 8.24 µM | 61.4 µM
NS(=O)(=O)c1ccc(N2N=C3c4ccccc4OCC3C2c2ccccc2Br)cc1 (configuration not stated) | 12 µM | 27.8 µM | 2.94 µM | 90.2 µM | 1.26 µM | 81.6 µM
NS(=O)(=O)c1ccc(N2N=C3c4ccccc4OCC3C2c2ccc(Br)cc2)cc1 (configuration not stated) | 7.3 µM | 46 µM | 8.4 µM | > 100 µM | 6.88 µM | 63.2 µM
NS(=O)(=O)c1ccc(N2N=C3c4ccccc4OCC3C2c2ccc(Cl)cc2Cl)cc1 (configuration not stated) | 4.76 µM | 46.8 µM | 17.5 µM | 96.3 µM | 2.74 µM | 57.1 µM
NS(=O)(=O)c1ccc(N2N=C3c4ccccc4OCC3C2c2c(F)cccc2Cl)cc1 (configuration not stated) | 8.49 µM | 40.5 µM | 7.76 µM | > 100 µM | 16.3 µM | 66.2 µM
Cc1ccc(-c2cc(C(F)(F)F)nn2-c2ccc(S(N)(=O)=O)cc2)cc1 [CELECOXIB] | 4.56 µM | 5.94 µM | 7.35 µM |  |  | 72.4 µM
COc1cc2ncnc(Nc3ccc(F)c(Cl)c3)c2cc1OCCCN1CCOCC1 [GEFITINIB] |  |  |  |  |  | 52 µM

From ChEMBL document CHEMBL3407356, “Design, synthesis, biological evaluation and molecular modeling of dihydropyrazole sulfonamide derivatives as potential COX-1/COX-2 inhibitors” (Bioorg Med Chem Lett, 2015)
